# Data reported in ChEMBL document CHEMBL1141928, “Non-peptidic alpha(v)beta3 antagonists containing indol-1-yl propionic acids” (Bioorg Med Chem Lett, 2005).
# Target: Integrin alpha-V/beta-3 (Homo sapiens, UniProt P05106+P06756)
# Assay: Inhibitory concentration against alphaV-beta3 integrin
# Format: protein-complex assay
# Details: not given
# Chain of Integrin alpha-V/beta-3 (P05106 27-788 limits assumed): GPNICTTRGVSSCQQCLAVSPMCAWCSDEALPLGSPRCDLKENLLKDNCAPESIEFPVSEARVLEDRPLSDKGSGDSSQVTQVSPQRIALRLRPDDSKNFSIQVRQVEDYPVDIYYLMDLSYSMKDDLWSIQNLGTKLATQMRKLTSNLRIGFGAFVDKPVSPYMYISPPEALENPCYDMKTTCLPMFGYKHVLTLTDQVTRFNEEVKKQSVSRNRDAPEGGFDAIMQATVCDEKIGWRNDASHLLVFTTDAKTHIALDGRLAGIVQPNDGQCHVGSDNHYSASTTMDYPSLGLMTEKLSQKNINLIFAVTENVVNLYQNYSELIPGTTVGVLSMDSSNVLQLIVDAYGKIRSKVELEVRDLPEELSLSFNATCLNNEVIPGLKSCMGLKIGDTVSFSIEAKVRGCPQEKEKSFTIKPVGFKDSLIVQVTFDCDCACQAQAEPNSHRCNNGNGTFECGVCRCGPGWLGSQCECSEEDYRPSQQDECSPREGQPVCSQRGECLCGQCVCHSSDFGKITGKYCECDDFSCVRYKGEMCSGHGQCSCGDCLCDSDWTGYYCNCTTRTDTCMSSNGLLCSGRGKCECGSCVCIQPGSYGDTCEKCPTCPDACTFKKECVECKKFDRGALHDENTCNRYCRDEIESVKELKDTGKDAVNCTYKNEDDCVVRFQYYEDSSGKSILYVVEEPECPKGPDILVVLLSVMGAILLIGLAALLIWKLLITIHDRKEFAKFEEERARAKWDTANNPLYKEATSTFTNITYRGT
# Chain of Integrin alpha-V/beta-3 (P06756 31-889 limits assumed): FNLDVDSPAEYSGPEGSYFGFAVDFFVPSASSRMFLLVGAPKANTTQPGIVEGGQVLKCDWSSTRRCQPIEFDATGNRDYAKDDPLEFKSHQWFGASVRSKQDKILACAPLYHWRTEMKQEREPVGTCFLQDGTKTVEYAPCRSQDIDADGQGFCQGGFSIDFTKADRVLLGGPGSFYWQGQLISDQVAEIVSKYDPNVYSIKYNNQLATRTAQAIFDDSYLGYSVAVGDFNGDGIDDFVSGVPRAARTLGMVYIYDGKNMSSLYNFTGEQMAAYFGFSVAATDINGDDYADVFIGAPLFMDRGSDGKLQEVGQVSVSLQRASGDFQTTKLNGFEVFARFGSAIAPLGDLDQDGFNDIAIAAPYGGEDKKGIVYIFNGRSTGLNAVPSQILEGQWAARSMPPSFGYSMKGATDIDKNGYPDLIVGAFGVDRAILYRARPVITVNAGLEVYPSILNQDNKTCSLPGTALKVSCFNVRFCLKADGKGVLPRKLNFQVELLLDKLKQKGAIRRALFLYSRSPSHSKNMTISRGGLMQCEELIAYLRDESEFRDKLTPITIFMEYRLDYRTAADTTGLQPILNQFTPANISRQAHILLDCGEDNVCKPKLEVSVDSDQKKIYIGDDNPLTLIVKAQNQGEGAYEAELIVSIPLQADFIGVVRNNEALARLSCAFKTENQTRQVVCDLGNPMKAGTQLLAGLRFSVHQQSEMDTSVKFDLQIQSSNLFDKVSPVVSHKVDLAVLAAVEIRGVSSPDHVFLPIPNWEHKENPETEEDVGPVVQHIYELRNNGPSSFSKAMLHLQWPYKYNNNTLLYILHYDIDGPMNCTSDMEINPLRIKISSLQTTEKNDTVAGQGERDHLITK
# Chain of Integrin alpha-V/beta-3 (P06756 891-1048 limits assumed): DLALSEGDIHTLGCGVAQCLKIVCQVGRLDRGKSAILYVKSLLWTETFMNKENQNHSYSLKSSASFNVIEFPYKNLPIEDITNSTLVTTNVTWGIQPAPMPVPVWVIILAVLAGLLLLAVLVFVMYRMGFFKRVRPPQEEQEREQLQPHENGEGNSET
row,SMILES,IC50
1,CCCC(CC(=O)O)n1ccc2cc(OCCc3ccc4c(n3)NCCC4)ccc21 (centres undefined),5 nM
2,O=C(O)CC(c1ccc2c(c1)OCO2)n1ccc2cc(OCCc3ccc4c(n3)NCCC4)ccc21 (centres undefined),0.38 nM
3,O=C(O)c1ccc(-n2ccc3cc(OCCCNc4ccccn4)ccc32)cc1,> 20000 nM
4,CC(Cn1ccc2cc(OCCCNc3ccccn3)ccc21)C(=O)O (centres undefined),460 nM
5,O=C(O)C(Cc1ccccc1)Cn1ccc2cc(OCCCNc3ccccn3)ccc21 (centres undefined),1900 nM
6,N#Cc1cncc(C(CC(=O)O)n2ccc3cc(OCCc4ccc5c(n4)NCCC5)ccc32)c1 (centres undefined),0.26 nM
7,O=C(O)CC(c1cccc2ccccc12)n1ccc2cc(OCCc3ccc4c(n3)NCCC4)ccc21 (centres undefined),37 nM
8,CS(=O)(=O)c1ccc(C(CC(=O)O)n2ccc3cc(OCCc4ccc5c(n4)NCCC5)ccc32)cn1 (centres undefined),0.3 nM
9,O=C(O)c1ccccc1-n1ccc2cc(OCCCNc3ccccn3)ccc21,> 20000 nM
10,CCCC(CC(=O)O)n1ccc2cc(NC(=O)Cc3ccc4c(n3)NCCC4)ccc21 (centres undefined),78 nM
11,COc1cncc(C(CC(=O)O)n2ccc3cc(OCCc4ccc5c(n4)NCCC5)ccc32)c1 (centres undefined),0.25 nM
12,CNc1cccc(CCOc2ccc3c(ccn3CCC(=O)O)c2)n1,36 nM
13,O=C(O)CC(c1ccc2c(c1)OCO2)n1ccc2cc(OCCc3ccc4c(n3)NCCO4)ccc21 (centres undefined),8 nM
14,O=C(O)CC(c1cccnc1)n1ccc2cc(OCC(F)(F)c3ccc4c(n3)NCCC4)ccc21 (centres undefined),130 nM
15,CCCC(CC(=O)O)n1ccc2cc(CCCc3ccc4c(n3)NCCC4)ccc21 (centres undefined),23 nM
16,COc1ccc(C(CC(=O)O)n2ccc3cc(OCCc4ccc5c(n4)NCCC5)ccc32)cc1 (centres undefined),0.7 nM
17,O=C(O)CC(c1ccc2ccccc2c1)n1ccc2cc(OCCc3ccc4c(n3)NCCC4)ccc21 (centres undefined),37 nM
18,CCCC(Cn1ccc2cc(OCCCNc3ccccn3)ccc21)C(=O)O (centres undefined),2000 nM
19,CS(=O)(=O)c1cncc(C(CC(=O)O)n2ccc3cc(OCCc4ccc5c(n4)NCCC5)ccc32)c1 (centres undefined),0.46 nM

# Results, then the molecule that gave them:
row,IC50,SMILES
1,0.38 nM,O=C(O)CC(c1cnc2ccccc2c1)n1ccc2cc(OCCc3ccc4c(n3)NCCC4)ccc21 (centres undefined)
2,0.8 nM,COc1cccc(C(CC(=O)O)n2ccc3cc(OCCc4ccc5c(n4)NCCC5)ccc32)c1 (centres undefined)
3,55 nM,O=C(O)CC(c1ccccc1Cl)n1ccc2cc(OCCc3ccc4c(n3)NCCC4)ccc21 (centres undefined)
4,1.1 nM,COc1ccccc1C(CC(=O)O)n1ccc2cc(OCCc3ccc4c(n3)NCCC4)ccc21 (centres undefined)
5,0.5 nM,O=C(O)CC(c1cccc(Cl)c1)n1ccc2cc(OCCc3ccc4c(n3)NCCC4)ccc21 (centres undefined)
6,0.9 nM,O=C(O)CC(c1ccncc1)n1ccc2cc(OCCc3ccc4c(n3)NCCC4)ccc21 (centres undefined)
7,1.2 nM,O=C(O)CC(c1ccccn1)n1ccc2cc(OCCc3ccc4c(n3)NCCC4)ccc21 (centres undefined)
8,1 nM,O=C(O)CC(c1ccccc1)n1ccc2cc(OCCc3ccc4c(n3)NCCC4)ccc21 (centres undefined)
9,40 nM,O=C(O)CC(c1ccc(-c2ccccc2)cc1)n1ccc2cc(OCCc3ccc4c(n3)NCCC4)ccc21 (centres undefined)
10,0.25 nM,O=C(O)CC(c1cccnc1)n1ccc2cc(OCCc3ccc4c(n3)NCCC4)ccc21 (centres undefined)
11,200 nM,O=C(O)CC(c1ccccc1)n1ccc2cc(OCCONC3=NCCN3)ccc21 (centres undefined)
12,0.7 nM,O=C(O)CC(c1ccc(F)cc1)n1ccc2cc(OCCc3ccc4c(n3)NCCC4)ccc21 (centres undefined)

# Test system: not listed separately
# Assay: Bioavailability in mice after […] dosage
# Format: ADME, organism-based
# Details: mouse, in vivo
row,bioavailability,SMILES
1,73%,O=C(O)CC(c1ccc2c(c1)OCO2)n1ccc2cc(OCCc3ccc4c(n3)NCCC4)ccc21 (centres undefined)

# Test system: not listed separately
# Assay: Half life in mice after intravenous dosage
# Format: ADME, organism-based
# Details: mouse, in vivo
row,half-life,SMILES
1,90 min,O=C(O)CC(c1ccc2c(c1)OCO2)n1ccc2cc(OCCc3ccc4c(n3)NCCC4)ccc21 (centres undefined)

# Test system: not listed separately
# Assay: Clearance in mice after intravenous dosage
# Format: ADME, organism-based
# Details: mouse, in vivo
row,clearance,SMILES
1,13 mL/min/kg,O=C(O)CC(c1ccc2c(c1)OCO2)n1ccc2cc(OCCc3ccc4c(n3)NCCC4)ccc21 (centres undefined)
